Experimental data published in article PMC11942486, “The Impact of a Quinone Scaffold on Thermo-TRPs Modulation by Dimethylheptyl Phytocannabinoids” (International Journal of Molecular Sciences, 2025).
Read-outs that look alike come from different tables or passages of the source.

Key:
Type in all cases: cell-based
[1] = target: T1, rat TRPA1 (Rattus norvegicus, UniProt Q6RI86); test: Thermo-TRP assay: [Ca2+]i elevation (Fluo-4) in HEK-293 cells transfected with TRPA1; details: for TRPA1 Efficacy (% AITC 100 μM): agonist effect as % of AITC 100 μM, HEK-293 rat TRPA1; for IC50: antagonist/desensitizing, added 5 min before AITC 100 μM, read-out: IC50 TRPA1; for EC50: half-maximal increase in [Ca2+]i, read-out: TRPA1 Potency EC50
T1 construct: expressed in transfected cells
T1 sequence (Q6RI86 whole entry): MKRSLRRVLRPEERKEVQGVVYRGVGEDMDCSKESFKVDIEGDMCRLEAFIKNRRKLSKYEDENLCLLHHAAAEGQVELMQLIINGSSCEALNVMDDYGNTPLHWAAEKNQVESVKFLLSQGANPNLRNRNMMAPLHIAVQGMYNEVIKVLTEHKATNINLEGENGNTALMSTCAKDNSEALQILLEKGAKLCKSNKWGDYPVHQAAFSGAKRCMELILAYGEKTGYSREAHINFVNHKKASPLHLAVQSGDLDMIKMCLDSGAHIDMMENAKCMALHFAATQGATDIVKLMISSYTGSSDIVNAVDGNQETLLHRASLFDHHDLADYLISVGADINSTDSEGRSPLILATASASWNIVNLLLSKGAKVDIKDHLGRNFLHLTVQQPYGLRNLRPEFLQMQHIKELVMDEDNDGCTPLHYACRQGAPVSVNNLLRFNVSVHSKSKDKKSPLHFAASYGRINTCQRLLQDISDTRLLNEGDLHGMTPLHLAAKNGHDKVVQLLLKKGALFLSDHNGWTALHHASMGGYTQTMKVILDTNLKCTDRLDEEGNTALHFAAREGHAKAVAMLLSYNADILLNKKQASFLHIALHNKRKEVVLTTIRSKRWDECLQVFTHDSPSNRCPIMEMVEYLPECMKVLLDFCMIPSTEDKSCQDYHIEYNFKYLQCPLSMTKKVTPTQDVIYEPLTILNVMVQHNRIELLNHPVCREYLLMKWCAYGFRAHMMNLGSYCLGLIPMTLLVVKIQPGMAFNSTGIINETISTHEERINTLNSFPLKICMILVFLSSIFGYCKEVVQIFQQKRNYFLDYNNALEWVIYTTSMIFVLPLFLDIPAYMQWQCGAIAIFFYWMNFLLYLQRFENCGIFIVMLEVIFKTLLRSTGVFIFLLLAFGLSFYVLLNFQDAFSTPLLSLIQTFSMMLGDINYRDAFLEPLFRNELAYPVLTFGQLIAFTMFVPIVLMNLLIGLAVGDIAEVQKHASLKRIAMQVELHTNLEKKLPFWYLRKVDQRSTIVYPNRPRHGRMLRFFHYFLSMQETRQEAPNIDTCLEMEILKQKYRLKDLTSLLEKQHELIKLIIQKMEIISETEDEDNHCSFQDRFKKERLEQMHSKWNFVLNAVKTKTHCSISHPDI
Description: (§1) The compounds were tested on HEK-293 cells either stably transfected with rat TRPA1, TRPV2, TRPV3, TRPV4, TRPM8 or human TRPV1 or not-transfected, by performing a continuous monitoring of the intracellular calcium ([Ca^2+]i) elevation during the experiments, following the protocol already described. […] Cell fluorescence before and after the addition of various concentrations of tested compounds was measured, normalizing the effects against the response to ionomycin (IM, 4 μM). The effect on [Ca^2+]i in non-transfected HEK-293 cells were used as the baseline and subtracted from the values obtained from the transfected ones. The efficacy of the agonists was determined by normalizing their effect to the maximum Ca^2+ influx effect on [Ca^2+]i observed with application of 4μM ionomycin. The effects of TRPA1 agonists are expressed as a percentage of the effect obtained with 100 μM allyl isothiocyanate (AITC). In the TRPV3 assay, rat TRPV3-expressing HEK-293 cells were first sensitized with the structurally unrelated agonist 2-aminoethoxydiphenyl borate (100 μM). For the TRPM8, the experiments were carried out at 22 °C. The potency (EC50 values) is determined as the concentration required to produce half-maximal increases in [Ca^2+]i. […] A dose-response curve fitting (sigmoidal dose-response variable slope) and parameter estimation were performed with Graph-Pad Prism 8 (GraphPad Software Inc., San Diego, CA, USA). All determinations were performed at least in triplicate.

[2] = target: T2, rat TRPV4 (Rattus norvegicus, UniProt Q9ERZ8); test: Thermo-TRP assay: [Ca2+]i elevation (Fluo-4) in HEK-293 cells transfected with TRPV4
T2 construct: expressed in transfected cells
T2 sequence (Q9ERZ8 whole entry): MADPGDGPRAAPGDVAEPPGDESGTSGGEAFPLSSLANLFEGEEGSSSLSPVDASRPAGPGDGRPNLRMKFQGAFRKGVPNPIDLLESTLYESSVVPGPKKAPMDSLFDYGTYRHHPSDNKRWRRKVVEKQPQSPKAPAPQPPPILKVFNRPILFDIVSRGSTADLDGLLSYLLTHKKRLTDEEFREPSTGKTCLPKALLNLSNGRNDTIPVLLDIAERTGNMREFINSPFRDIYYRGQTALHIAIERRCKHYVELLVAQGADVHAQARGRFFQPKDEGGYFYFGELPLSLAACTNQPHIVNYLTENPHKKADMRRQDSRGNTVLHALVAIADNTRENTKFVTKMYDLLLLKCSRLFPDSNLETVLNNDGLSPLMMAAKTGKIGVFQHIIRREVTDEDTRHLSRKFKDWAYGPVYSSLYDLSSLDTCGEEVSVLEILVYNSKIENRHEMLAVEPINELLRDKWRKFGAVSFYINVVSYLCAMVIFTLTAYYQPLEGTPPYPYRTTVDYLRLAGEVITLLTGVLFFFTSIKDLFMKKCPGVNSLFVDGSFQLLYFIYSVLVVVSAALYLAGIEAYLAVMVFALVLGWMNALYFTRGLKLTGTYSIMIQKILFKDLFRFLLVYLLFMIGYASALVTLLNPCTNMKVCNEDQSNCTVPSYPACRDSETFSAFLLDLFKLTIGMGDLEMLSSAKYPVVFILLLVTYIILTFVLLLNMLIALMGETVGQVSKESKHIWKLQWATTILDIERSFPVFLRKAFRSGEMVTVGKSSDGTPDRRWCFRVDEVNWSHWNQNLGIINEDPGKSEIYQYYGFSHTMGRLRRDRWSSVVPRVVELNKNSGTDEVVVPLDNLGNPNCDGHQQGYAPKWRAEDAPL
Description: as §1

[3] = target: T3, rat TRPV2 (Rattus norvegicus, UniProt Q9WUD2); test: Thermo-TRP assay: [Ca2+]i elevation (Fluo-4) in HEK-293 cells transfected with TRPV2; details: for TRPV2 Efficacy (% Ionomycin 4 μM): agonist effect as % of ionomycin 4 μM; for EC50: half-maximal increase in [Ca2+]i, read-out: TRPV2 Potency EC50; for IC50: vs CBD 2 μM
T3 construct: expressed in transfected cells
T3 sequence (Q9WUD2 1-761): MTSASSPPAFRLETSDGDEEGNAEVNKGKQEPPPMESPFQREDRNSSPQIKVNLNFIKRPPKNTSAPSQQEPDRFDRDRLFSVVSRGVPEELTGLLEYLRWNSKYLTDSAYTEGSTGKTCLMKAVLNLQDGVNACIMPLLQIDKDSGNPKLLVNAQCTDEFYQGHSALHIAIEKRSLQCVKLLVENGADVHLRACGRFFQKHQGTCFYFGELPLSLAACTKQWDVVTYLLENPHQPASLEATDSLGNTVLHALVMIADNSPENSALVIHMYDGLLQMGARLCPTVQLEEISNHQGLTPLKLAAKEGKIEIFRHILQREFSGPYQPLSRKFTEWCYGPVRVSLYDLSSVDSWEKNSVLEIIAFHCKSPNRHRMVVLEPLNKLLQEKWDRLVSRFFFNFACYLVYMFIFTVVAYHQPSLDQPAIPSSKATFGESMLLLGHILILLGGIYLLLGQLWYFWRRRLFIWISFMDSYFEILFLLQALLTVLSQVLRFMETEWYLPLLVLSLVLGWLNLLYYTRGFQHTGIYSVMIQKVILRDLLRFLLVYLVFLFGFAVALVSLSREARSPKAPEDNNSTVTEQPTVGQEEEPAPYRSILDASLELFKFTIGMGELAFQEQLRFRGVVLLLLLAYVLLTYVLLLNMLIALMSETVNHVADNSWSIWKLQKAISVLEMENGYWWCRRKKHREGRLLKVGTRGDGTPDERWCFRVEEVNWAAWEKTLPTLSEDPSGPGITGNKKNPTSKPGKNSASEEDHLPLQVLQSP
Description: The compounds were tested on HEK-293 cells either stably transfected with rat TRPA1, TRPV2, TRPV3, TRPV4, TRPM8 or human TRPV1 or not-transfected, by performing a continuous monitoring of the intracellular calcium ([Ca^2+]i) elevation during the experiments, following the protocol already described. On the day of the experiment, the cells were loaded for 1 h in the dark at room temperature with the fluorescent probe Fluo-4 AM (4 μM in DMSO containing 0.02% Pluronic F-127). The cells were rinsed, resuspended in Tyrode’s solution (145 mM NaCl, 2.5 mM KCl, 1.5 mM CaCl2, 1.2 mM MgCl2, 10 mM D-glucose, and 10 mM HEPES, pH 7.4), and transferred to a quartz cuvette of a spectrofluorimeter (PerkinElmer LS50B; λEX = 488 nm, λEM = 516 nm) equipped with a PTP-1 fluorescence Peltier system (PerkinElmer Life and Analytical Sciences, Waltham, MA, USA) under continuous stirring. Cell fluorescence before and after the addition of various concentrations of tested compounds was measured, normalizing the effects against the response to ionomycin (IM, 4 μM). The effect on [Ca^2+]i in non-transfected HEK-293 cells were used as the baseline and subtracted from the values obtained from the transfected ones. The efficacy of the agonists was determined by normalizing their effect to the maximum Ca^2+ influx effect on [Ca^2+]i observed with application of 4μM ionomycin. The effects of TRPA1 agonists are expressed as a percentage of the effect obtained with 100 μM allyl isothiocyanate (AITC). In the TRPV3 assay, rat TRPV3-expressing HEK-293 cells were first sensitized with the structurally unrelated agonist 2-aminoethoxydiphenyl borate (100 μM). For the TRPM8, the experiments were carried out at 22 °C. The potency (EC50 values) is determined as the concentration required to produce half-maximal increases in [Ca^2+]i. Antagonist/desensitizing behavior is evaluated against the agonist of the TRP analyzed by adding the compounds directly in the quartz cuvette 5 min before stimulation of cells with the agonist (allylisothiocyanate (100 μM) for TRPA1, capsaicin (0.1 μM) for TRPV1, cannabidiol (2 μM) for TRPV2, thymol (100 μM) for TRPV3, GSK1016790A (10 nM) for TRPV4, and icilin (0.25 μM) for TRPM8). The IC50 value is expressed as the concentration exerting a half-maximal inhibition of the agonist effect, taking as 100% the effect on [Ca^2+]i exerted by the agonist alone. A dose-response curve fitting (sigmoidal dose-response variable slope) and parameter estimation were performed with Graph-Pad Prism 8 (GraphPad Software Inc., San Diego, CA, USA). All determinations were performed at least in triplicate.

[4] = target: T4, rat TRPM8 (Rattus norvegicus, UniProt Q8R455); test: Thermo-TRP assay: [Ca2+]i elevation (Fluo-4) in HEK-293 cells transfected with TRPM8
T4 construct: expressed in transfected cells
T4 sequence (Q8R455 whole entry): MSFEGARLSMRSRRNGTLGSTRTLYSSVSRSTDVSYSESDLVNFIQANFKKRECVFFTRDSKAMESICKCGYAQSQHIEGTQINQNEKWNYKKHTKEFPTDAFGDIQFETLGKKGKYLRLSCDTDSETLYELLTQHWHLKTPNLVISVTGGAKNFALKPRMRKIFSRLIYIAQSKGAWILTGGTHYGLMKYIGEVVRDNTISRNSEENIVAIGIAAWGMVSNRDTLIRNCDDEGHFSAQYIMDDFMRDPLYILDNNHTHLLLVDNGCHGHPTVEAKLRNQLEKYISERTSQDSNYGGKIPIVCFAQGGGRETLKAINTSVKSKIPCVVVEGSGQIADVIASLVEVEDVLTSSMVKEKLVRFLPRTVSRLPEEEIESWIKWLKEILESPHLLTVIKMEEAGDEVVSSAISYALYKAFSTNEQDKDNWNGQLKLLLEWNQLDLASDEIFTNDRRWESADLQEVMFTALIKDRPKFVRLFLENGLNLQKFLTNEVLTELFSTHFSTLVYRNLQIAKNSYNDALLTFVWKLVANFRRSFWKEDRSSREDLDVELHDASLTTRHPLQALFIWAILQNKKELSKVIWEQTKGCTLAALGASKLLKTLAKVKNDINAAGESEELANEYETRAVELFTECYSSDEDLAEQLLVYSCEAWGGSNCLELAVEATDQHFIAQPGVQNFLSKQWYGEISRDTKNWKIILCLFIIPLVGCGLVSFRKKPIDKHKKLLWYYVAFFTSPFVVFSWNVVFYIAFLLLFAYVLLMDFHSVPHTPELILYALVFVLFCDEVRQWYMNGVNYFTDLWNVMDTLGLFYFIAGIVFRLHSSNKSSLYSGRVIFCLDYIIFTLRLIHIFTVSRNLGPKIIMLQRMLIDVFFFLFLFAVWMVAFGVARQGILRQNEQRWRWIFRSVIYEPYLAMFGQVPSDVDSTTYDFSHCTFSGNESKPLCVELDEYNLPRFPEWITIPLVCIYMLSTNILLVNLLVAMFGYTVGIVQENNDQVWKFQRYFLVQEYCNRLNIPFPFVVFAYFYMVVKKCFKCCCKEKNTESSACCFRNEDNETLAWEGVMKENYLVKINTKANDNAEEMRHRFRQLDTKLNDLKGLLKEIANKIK
Description: as §1

[5] = vs GSK1016790A 10 nM, read-out: IC50 TRPV4
[6] = vs Icilin 0.25 μM, 22 °C, read-out: IC50 TRPM8

For `CCCCCCC(C)(C)C1=CC2=C(C(=O)C1=O)[C@@H]1CC(C)=CC[C@H]1C(C)(C)O2` [6b], the “TRPA1 Efficacy (% AITC 100 μM)” value [1] was 147.3 ± 7.3%, the IC50 [1] was 1.8 ± 0.3 µM and the EC50 [1] was 4.4 ± 1.25 µM. For the same compound, the IC50 [2] was > 100 µM, the “TRPV2 Efficacy (% Ionomycin 4 μM)” value [3] was 78.1 ± 4.0% and the EC50 [3] was > 50 µM. The IC50 [3] was 8.5 ± 0.5 µM and the IC50 [4] was > 100 µM.
With `C=C(C)[C@@H]1CCC(C)=C[C@H]1C1=C(O)C(=O)C(C(C)(C)CCCCCC)=CC1=O` [5b] the “TRPA1 Efficacy (% AITC 100 μM)” value [1] was 120.4 ± 3.0%, the IC50 [1] was 3.5 ± 0.2 µM and the EC50 [1] was 5.2 ± 0.8 µM. For the same compound, the IC50 [2, 5] was > 100 µM, the “TRPV2 Efficacy (% Ionomycin 4 μM)” value [3] was 30.6 ± 6.5% and the EC50 [3] was 12.2 ± 9.7 µM. The IC50 [3] was 5.45 ± 0.5 µM and the IC50 [4, 6] was 1.2 ± 0.1 µM.
`CCCCCCC(C)(C)C1=CC(=O)C2=C(OC(C)(CCC=C(C)C)C=C2)C1=O` (centres unmarked) [8b] was tested, and the “TRPA1 Efficacy (% AITC 100 μM)” value [1] was 111.2 ± 2.1%, the IC50 [1] was 0.35 ± 0.02 µM and the EC50 [1] was 0.19 ± 0.03 µM. For the same compound, the IC50 [2, 5] was > 100 µM, the “TRPV2 Efficacy (% Ionomycin 4 μM)” value [3] was 31.5 ± 2.9% and the EC50 [3] was > 50 µM. For the same compound, the IC50 [3] was 6.9 ± 0.1 µM and the IC50 [4, 6] was > 100 µM.
For `CCCCCCC(C)(C)C1=CC(=O)C(C/C=C(\C)CCC=C(C)C)=C(O)C1=O` [7b, p-DMHCBGQ], the “TRPA1 Efficacy (% AITC 100 μM)” value [1] was 114.2 ± 4.1%, the IC50 [1] was 1.1 ± 0.1 µM and the EC50 [1] was 1.1 ± 0.2 µM. The IC50 [2, 5] was > 50 µM, the “TRPV2 Efficacy (% Ionomycin 4 μM)” value [3] was 47.8 ± 1.4% and the EC50 [3] was 30.5 ± 3.9 µM. It also gave an IC50 [3] of 23.7 ± 2.9 µM and an IC50 [4, 6] of 14.9 ± 3.9 µM.
